Reference: PubChem BioAssay (NCI)
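Grown in 96-well plates, cells were treated for 48 hours with each compound at five concentrations. Insufficient inhibition: endpoint recorded as highest concentration tested. At the GI50, growth is halved. TGI: concentration producing complete growth inhibition.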

Columns and labels:
Assay in all cases: DTP human tumour cell line panel, 48 h
[1] = system: MDA-MB-231 breast
[2] = system: BT-549 breast
[3] = system: SF-295 CNS
[4] = system: HOP-62 NSCLC
[5] = system: NCI/ADR-RES ovarian
[6] = system: UACC-62 melanoma
[7] = system: K-562 leukemia
[8] = system: OVCAR-8 ovarian
[9] = system: PC-3 prostate
[10] = system: T-47D breast
[11] = system: SN12C renal
[12] = system: SK-OV-3 ovarian
[13] = system: A549 NSCLC
[14] = system: MDA-MB-435
[15] = system: CCRF-CEM leukemia
[16] = system: SNB-75 CNS
[17] = system: A498 renal
[18] = system: UO-31 renal
[19] = system: NCI-H226 lung
[20] = system: SK-MEL-28 melanoma
[21] = system: SNB-19 CNS
[22] = system: HCT-116 colon
[23] = system: TK-10 renal
[24] = system: MOLT-4 leukemia
[25] = system: SK-MEL-5 melanoma
[26] = system: RXF 393 renal
[27] = system: KM12 colon
[28] = system: SF-268 CNS
[29] = system: U251 CNS
[30] = system: ACHN renal
[31] = system: SF-539 CNS
[32] = system: DU-145 prostate
[33] = system: MALME-3M melanoma
[34] = system: COLO 205 colon
[35] = system: OVCAR-5 ovarian
[36] = system: SR leukemia
[37] = system: SW-620 colon
[38] = system: 786-0 renal
[39] = system: NCI-H460 lung
[40] = system: HS 578T breast
[41] = system: NCI-H522 lung
[42] = system: EKVX NSCLC
[43] = system: IGROV1 ovarian
[44] = system: HT29 colon
[45] = system: SK-MEL-2 melanoma
[46] = system: HOP-92 NSCLC
[47] = system: CAKI-1 renal
[48] = system: HCT-15 colon
[49] = system: OVCAR-4 ovarian
[50] = system: HCC-2998 colon
[51] = system: MCF7 breast
[52] = system: M14 melanoma
[53] = system: RPMI-8226 leukemia
[54] = system: HL-60(TB) leukemia
[55] = system: NCI-H23 lung
[56] = system: UACC-257 melanoma

`O=C(c1ccc(Oc2ccccc2)cc1Cl)c1c[nH]c2ncnc(N[C@@H]3CC[C@@H](CO)OC3)c12` showed a GI50 [1] of 320 nM, a TGI [1] of 1740 nM and a GI50 [2] of 1660 nM. For the same molecule, the TGI [2] was 4.17 µM, the GI50 [3] was 2450 nM and the TGI [3] was 15.3 µM. The GI50 [4] was 302 nM, the TGI [4] was 11 µM and the GI50 [5] was 2300 nM. The TGI [5] was 10.7 µM, the GI50 [6] was 20.9 nM and the TGI [6] was 173 nM. The GI50 [7] was 432 nM, the TGI [7] was greater than 36.3 µM and the GI50 [8] was 1330 nM. The TGI [8] was 11.2 µM, the GI50 [9] was 3.16 µM and the TGI [9] was 13.5 µM. For the same molecule, the GI50 [10] was 908 nM, the TGI [10] was 6.83 µM and the GI50 [11] was 413 nM. For the same molecule, the TGI [11] was 11.4 µM, the GI50 [12] was 351 nM and the TGI [12] was 2090 nM. It also gave a GI50 [13] of 724 nM, a TGI [13] of 9.92 µM and a GI50 [14] of 109 nM. For the same molecule, the TGI [14] was 10.8 µM, the GI50 [15] was 3.21 µM and the TGI [15] was 20.9 µM. It also gave a GI50 [16] of 1110 nM, a TGI [16] of 3.27 µM and a GI50 [17] of 295 nM. For the same molecule, the TGI [17] was 1280 nM, the GI50 [18] was 479 nM and the TGI [18] was 5.56 µM. The GI50 [19] was 1470 nM, the TGI [19] was 23.6 µM and the GI50 [20] was 35 nM. The TGI [20] was 465 nM, the GI50 [21] was 1810 nM and the TGI [21] was 15.3 µM. For the same molecule, the GI50 [22] was 244 nM, the TGI [22] was 1420 nM and the GI50 [23] was 231 nM. It also gave a TGI [23] of 1670 nM, a GI50 [24] of 1510 nM and a TGI [24] of 8.99 µM. The GI50 [25] was 771 nM, the TGI [25] was 3.56 µM and the GI50 [26] was 748 nM. It also gave a TGI [26] of 2770 nM, a GI50 [27] of 37.7 nM and a TGI [27] of 2610 nM. For the same molecule, the GI50 [28] was 1410 nM, the TGI [28] was 16.3 µM and the GI50 [29] was 1200 nM. It also gave a TGI [29] of 14.1 µM, a GI50 [30] of 260 nM and a TGI [30] of 10.5 µM. For the same molecule, the GI50 [31] was 1360 nM, the TGI [31] was 4.85 µM and the GI50 [32] was 688 nM. It also gave a TGI [32] of 6.96 µM, a GI50 [33] of 16.1 nM and a TGI [33] of 74.5 nM. For the same molecule, the GI50 [34] was 31.1 nM, the TGI [34] was 351 nM and the GI50 [35] was 255 nM. The TGI [35] was 2750 nM, the GI50 [36] was 2630 nM and the TGI [36] was 19.6 µM. It also gave a GI50 [37] of 397 nM, a TGI [37] of 11.6 µM and a GI50 [38] of 1580 nM. The TGI [38] was 9.35 µM, the GI50 [39] was 2510 nM and the TGI [39] was 10.7 µM. It also gave a GI50 [40] of 1590 nM, a TGI [40] of 5.01 µM and a GI50 [41] of 437 nM. It also gave a TGI [41] of 5.09 µM, a GI50 [42] of 641 nM and a TGI [42] of 9.42 µM. For the same molecule, the GI50 [43] was 84.2 nM, the TGI [43] was 1960 nM and the GI50 [44] was 43.4 nM. The TGI [44] was 1470 nM, the GI50 [45] was 229 nM and the TGI [45] was 876 nM. It also gave a GI50 [46] of 74.5 nM, a TGI [46] of 488 nM and a GI50 [47] of 398 nM. For the same molecule, the TGI [47] was 5.36 µM, the GI50 [48] was 885 nM and the TGI [48] was 10.8 µM. For the same molecule, the GI50 [49] was 5.02 µM, the TGI [49] was 23 µM and the GI50 [50] was 199 nM. For the same molecule, the TGI [50] was 5.56 µM, the GI50 [51] was 1470 nM and the TGI [51] was 13 µM. It also gave a GI50 [52] of 21.3 nM, a TGI [52] of 222 nM and a GI50 [53] of 1760 nM. For the same molecule, the TGI [53] was 9.53 µM, the GI50 [54] was 200 nM and the TGI [54] was 1970 nM. The GI50 [55] was 703 nM, the TGI [55] was 13.7 µM and the GI50 [56] was 38.9 nM. It also gave a TGI [56] of 395 nM.
